Assay results reported in ChEMBL document CHEMBL4411339, “Design, synthesis and antimycobacterial activity of less lipophilic Q203 derivatives containing alkaline fused ring moieties” (Bioorg Med Chem, 2019).
In brackets after ≈: the same amount, converted by molar mass.

What was measured:
[1] = tested on: Mycobacterium tuberculosis; experiment: Antimycobacterial activity against isoniazid/rifampicin-resistant Mycobacterium tuberculosis isolate 16833 after 7 days by microplate alamar blue assay; type: functional; details: isolate 16833, 168 h
[2] = tested on: Mycobacterium tuberculosis; experiment: Antimycobacterial activity against isoniazid/rifampicin-resistant Mycobacterium tuberculosis isolate 16995 after 7 days by microplate alamar blue assay; type: functional; details: isolate 16995, 168 h

Compound	MIC [1]	MIC [2]
CCc1nc2ccc(Cl)cn2c1C(=O)NCc1ccc(N2CCC(c3ccc(OC(F)(F)F)cc3)CC2)cc1 [TELACEBEC]	< 0.035 µM	< 0.035 µM
CCc1nc2cc(Cl)ccn2c1C(=O)NCc1ccc2c(c1)CCN(Cc1ccc(C(C)(C)C)cc1)C2	< 0.035 µM	< 0.035 µM
CCc1nc2ccc(Cl)cn2c1C(=O)NCc1ccc2c(c1)CCN(Cc1ccc(C(F)(F)F)cn1)C2	0.049 µM (≈ 0.0259 µg/mL)	0.046 µM (≈ 0.0243 µg/mL)
CCc1nc2ccc(Cl)cn2c1C(=O)NCc1ccc2c(c1)CCN(Cc1ccc(Br)cc1)C2	< 0.035 µM	< 0.035 µM
CCc1nc2cc(Cl)ccn2c1C(=O)NCc1ccc2c(c1)CCN(Cc1cc(F)cc(F)c1)C2	0.095 µM (≈ 0.047 µg/mL)	0.11 µM (≈ 0.0544 µg/mL)
CO[C@H]1/C=C/O[C@@]2(C)Oc3c(C)c(O)c4c(O)c(c(/C=N/N5CCN(C)CC5)c(O)c4c3C2=O)NC(=O)/C(C)=C\C=C\[C@H](C)[C@H](O)[C@@H](C)[C@@H](O)[C@@H](C)[C@H](OC(C)=O)[C@@H]1C [RIFAMPIN]	> 40 µM	> 40 µM
CCc1nc2ccc(Cl)cn2c1C(=O)NCc1ccc2c(c1)CCN(Cc1cc(F)cc(F)c1)C2	< 0.035 µM	< 0.035 µM
CCc1nc2ccc(Cl)cn2c1C(=O)NCc1ccc2c(c1)CCN(Cc1ccc(C(C)(C)C)cc1)C2	< 0.035 µM	< 0.035 µM
CCc1nc2ccc(Cl)cn2c1C(=O)NCc1ccc2c(c1)CN(C(C)c1ccc(OC(F)(F)F)cc1)C2 (centres undefined)	< 0.035 µM	< 0.035 µM
CCc1nc2ccc(Cl)cn2c1C(=O)NCc1ccc2c(c1)CCN(Cc1ccc(C(F)(F)F)nc1)C2	< 0.035 µM	0.047 µM (≈ 0.0248 µg/mL)
CCc1nc2ccc(Cl)cn2c1C(=O)NCc1ccc2c(c1)CCN(Cc1ccc(C(F)(F)F)cc1)C2	< 0.035 µM	< 0.035 µM
CCc1nc2ccc(Cl)cn2c1C(=O)NCc1ccc2c(c1)CCN(Cc1ccc(C)cc1)C2	< 0.035 µM	< 0.035 µM
CCc1nc2cc(Cl)ccn2c1C(=O)NCc1ccc2c(c1)CCN(Cc1ccc(OC)cc1)C2	0.096 µM (≈ 0.0469 µg/mL)	0.9 µM (≈ 0.44 µg/mL)
CCc1nc2ccc(Cl)cn2c1C(=O)NCc1ccc2c(c1)CCN(Cc1ccc(F)cc1)C2	< 0.035 µM	< 0.035 µM
CCc1nc2ccc(Cl)cn2c1C(=O)NCc1ccc2c(c1)CN(Cc1ccc(OC(F)(F)F)cc1)C2	< 0.035 µM	< 0.035 µM
NNC(=O)c1ccncc1 [ISONIAZID]	> 40 µM	> 40 µM
CCc1nc2ccc(Cl)cn2c1C(=O)NCc1ccc2c(c1)CCN(Cc1ccc(OC)cc1)C2	< 0.035 µM	< 0.035 µM
CCc1nc2cc(Cl)ccn2c1C(=O)NCc1ccc2c(c1)CCN(CCc1ccc(C(F)(F)F)cn1)C2	< 0.035 µM	0.061 µM (≈ 0.0331 µg/mL)
CCc1nc2ccc(Cl)cn2c1C(=O)NCc1ccc2c(c1)CCN(CCc1ccc(C(F)(F)F)nc1)C2	< 0.035 µM	< 0.035 µM
O=c1nc(N2CCN(CC3CCCCC3)CC2)sc2c([N+](=O)[O-])cc(C(F)(F)F)cc12 [MACOZINONE]	< 0.035 µM	< 0.035 µM
CCc1nc2ccc(Cl)cn2c1C(=O)NCc1ccc2c(c1)CCN(CCc1ccc(C(F)(F)F)cn1)C2	< 0.035 µM	< 0.035 µM
CCc1nc2cc(Cl)ccn2c1C(=O)NCc1ccc2c(c1)CCN(Cc1ccc([N+](=O)[O-])o1)C2	1.24 µM (≈ 0.612 µg/mL)	0.44 µM (≈ 0.217 µg/mL)
